Experimental data published in patent US20240246968A1, “SMALL MOLECULE INHIBITORS OF KRAS G12C MUTANT” (Merck Sharp & Dohme LLC, priority 2021, published 2024).
pIC50: −log10 of the molar value.

Columns and labels:
[1] = biological target: Gppcp-bound recombinant K-Ras4B G12C mutant protein (amino acids 1-169, C51S/C80L/C118S) (Homo sapiens, UniProt P01116, C118S/C51S/C80L/G12C); experiment: KRASG12C binding assay (LC-MS, compound binding rate); details: test compound final concentration 0.5 μM, 25° C., 1 hour
Procedure: As test compounds for the KRASG12C binding assay, the compounds obtained in the “Preparation of Compounds” section were used. Sample solutions each containing a test compound were prepared in the form of a 10 mM DMSO solution.
Gppcp-bound recombinant K-Ras4B G12C mutant protein (amino acids 1-169, C51S/C80L/C118S, SEQ ID NO:1) was diluted with a buffer (1×TBS, 0.1 mM TCEP, 0.25 mM MgCl2, 50 μM Gppcp) to prepare a 50 nM protein solution. K-Ras4B is the major splicing variant of K-Ras. Amino acid sequence of residues 1 to 150 including the compounds' binding region of K-Ras4B is exactly same as that of K-Ras4A, the other splicing variant (Oncotarget. 2016 Jul. 19; 7(29): 46717-46733). A sample solution containing 10 mM test compound was diluted ten-fold with DMSO to make a 1 mM sample solution, and then diluted twenty-fold with DMSO to make a 50 μM sample solution. 1 μL of a 50 μM sample solution was added to 100 μL of a 50 nM protein solution to adjust the final concentration of a test compound to be 0.5 μM in the mixture. The mixtures were stored in an incubator at 25° C. for 1 hour, and 10 μL of a 1×TBS solution containing 2% formic acid was added to stop the reaction, followed by LC-MS measurement. LC-MS measurement was performed using Xevo G2-S Q-Tof manufactured by Waters, and reverse-phase chromatography was performed with a desalting column. A mass spectrum of positive ions was obtained by electrospray. For a mass spectrum, a spectrum of polyvalent ions was collectively converted to a molecular weight by using OpenLynx software by the MaxEnt technique, and a compound binding rate was calculated from the ratio of the signal intensity of a peak that corresponds to the molecular weight of the protein to the signal intensity of a peak that corresponds to the molecular weight of the protein conjugated with the compound.
The binding assay of the test compounds was conducted at a final concentration of 0.5 μM. A binding rate of 80% or more is rated “A”, a binding rate of 60% or more and less than 80% is rated “B”, a binding rate of 40% or more and less than 60% is rated “C”, a binding rate of 20% or more and less than 40% is rated “D”, and a binding rate of less than 20% is rated “E”. N.D.=not determined. Binding rate % is the ratio of KRAS signal intensity at the molecular weight of one molecule adduct to the sum of all the KRAS signal intensity (unbound form and adducts) in mass spectrum. Thus, binding rate 100% means that only the one molecule adduct was observed without any unbound KRAS. The following tables show the results.

[2] = test system: MIA PaCa-2 cells; experiment: Growth inhibition activity on KRAS-G12C mutant cell line (MIA PaCa-2), CellTiter-Glo 3D; format: cell-based, human; details: MIA PaCa-2, 3-day culture with compound
Procedure: MIA PaCa-2 cells (given by Sumitomo Dainippon Pharma Co., Ltd.), which are a KRAS-G12C mutant human pancreas cancer cell line, were suspended in a 10% fetal bovine serum-containing RPMI1640 medium (manufactured by Fujifilm Wako Pure Chemical Corporation.). The cell suspension was seeded into each well of a 384-well U bottom microplate and cultured in an incubator containing 5% CO2 gas at 37° C. for 1 day. The compounds obtained in the “Preparation of Compounds” section were used as test compounds and were dissolved in DMSO, respectively, and each test compound was diluted with DMSO to give a concentration 500 times the final concentration. The resultant solution of the test compound in DMSO was diluted with the medium used for suspending cells and added to each well of the cell-culture plate to give a DMSO final concentration of 0.2%, followed by culture in an incubator containing 5% CO2 gas at 37° C. for another 3 days. The cell count after 3-day culture in the presence of the test compound was measured using CellTiter-Glo 3D Reagent (manufactured by Promega Corporation). All wells were added with CellTiter-Glo 3D Reagent and mixed for 10 minutes. 30 minutes after mixing, luminescence was measured by a plate reader. The growth inhibition rate was calculated from the following equation, and the concentration of the test compound at which 50/o inhibition was achieved (IC50 (nM)) was determined. The following tables show the results.
[formula] • T: the emission intensity in a well into which a test compound was added. • C: the emission intensity in a well into which a test compound was not added.

[3] = biological target: T1, interaction between recombinant K-Ras4B G12C mutant protein and cRAF RAS-binding domain (cRAF-RBD) (Homo sapiens, UniProt P01116, G12C); experiment: Inhibitory activity on interaction between KRAS G12C and cRAF (Alpha technology); format: biochemical; details: GMPPNP-bound KRAS G12C incubated with compound at 25° C. for 1 hour, then cRAF-RBD; Alpha signal
T1 construct: made in house; host or cells: E. coli
Procedure: Interaction between recombinant K-Ras4B G12C mutant protein (amino acids 1-169, SEQ ID NO:2) and cRAF RAS-binding domain (cRAF-RBD, amino acids 50-132, Jena Biosciences GmbH) was measured using Alpha technology (PerkinElmer Inc.).
Recombinant KRAS G12C protein with an N-terminal His-tag was expressed in E. coli and purified by affinity chromatography. To prepare GTP-bound form and GDP-bound form of KRAS G12C protein. 50 μM KRAS G12C protein was incubated with 1 mM GMPPNP (Guanosine-5′-[(β,γ)-imido]triphosphate. Tetralithium salt)(Jena Bioscience GmbH) and 1 mM GDP, respectively, in a loading buffer (20 mM Tris-HCl (pH 7.5), 50 mM NaCl, 1 mM DTT and 2.5 mM EDTA) for 1 hour on ice. After the incubation, MgCl2 was added to a final concentration of 10 mM, followed by incubation at room temperature for 30 minutes. The mixture was allowed to pass through a NAP-5 column to remove free nucleotides and purified, and the resultant nucleotide-bound KRAS G12C protein was used for compound evaluation.
For the measurement of the inhibitory activity of compounds on interaction between KRAS G12C and cRAF-RBD, GMPPNP-bound KRAS G12C protein was incubated with various concentrations of compound in a reaction buffer (20 mM Tris-HCl (pH 7.5), 100 mM NaCl, 1 mM MgCl2, 1 mM TCEP. 0.1% Tween 20) at 25° C. for 1 hour. After the incubation, recombinant cRAF-RBD and Alpha detection reagents were added and incubated at room temperature for 1.5 hours for binding. Interaction of KRAS G12C and cRAF-RBD was monitored by measuring Alpha signal. Inhibition % was calculated using the signal from the reaction without test compound (DMSO control) as 0% inhibition and the signal from the reaction using GDP-bound KRAS G12C in place of GMPPNP-bound KRAS G12C as 100% inhibition. IC50 values were calculated from dose titration curve using curve fitting by XLfit software (IDBS). The following tables show the results.

pIC50 ([2]; Homo sapiens, MIA PaCa-2, 72 h) | pIC50 [3] | pIC50 [2] | Compound | binding rate [1]
6.70 | 7.01 |  | Cc1nc2cc(-c3cccn4c(C(=O)c5cc(F)c(NC(=O)/C=C/CN[C@@H]6CCC[C@@H](F)C6)c(F)c5)ccc34)c(C(F)(F)F)cc2n1C (racemic) [Example 90, (E)-N-(4-(8-(1,2-dimethyl-6-(trifluoromethyl)-1H-benzo[d]imidazol-5-yl)indolizine-3-carbonyl-2,6-difluorophenyl)-4-(((1R,3R)-3-fluorocyclohexyl)amino)but-2-enamide and (E)-N-(4-(8-(1,2-dimethyl-6-(trifluoromethyl)-1H-benzo[d]imidazol-5-yl)indolizine-3-carbonyl)-2,6-difluorophenyl)-4-(((1S,3S)-3-fluorocyclohexyl)amino)but-2-enamide] | A (A binding rate of 80% or more is rated “A”)
6.55 | 7.08 |  | Cc1nc2cc(-c3cccn4c(C(=O)c5cc(F)c(NC(=O)/C=C/CN[C@@H]6CCC[C@H](F)C6)c(F)c5)ccc34)c(C(F)(F)F)cc2n1C (racemic) [Example 94, (E)-N-(4-(8-(1,2-dimethyl-6-(trifluoromethyl)-1H-benzo[d]imidazol-5-yl)indolizine-3-carbonyl)-2,6-difluorophenyl)-4-(((1R,3S)-3-fluorocyclohexyl)amino)but-2-enamide and (E)-N-(4-(8-(1,2-dimethyl-6-(trifluoromethyl)-1H-benzo[d]imidazol-5-yl)indolizine-3-carbonyl)-2,6-difluorophenyl-4-(((1S,3R)-3-fluorocyclohexyl)amino)but-2-enamide] | A (A binding rate of 80% or more is rated “A”)
 | 7.70 | 7.37 | COc1c(-c2cc(F)cn3c(C(=O)c4cc(F)c(NC(=O)/C=C/CNC5(C)CC5)c(F)c4)cnc23)c(C(F)(F)F)cc2c1nc(C)n2C (single isomer, unassigned) [Example 112-1, (E)-N-(2,6-difluoro-4-(6-fluoro-8-(4-methoxy-1,2-dimethyl-6-(trifluoromethyl)-1H-benzo[d]imidazol-5-yl)imidazo[1,2-a]pyridine-3-carbonyl)phenyl)-4-((1-methylcyclopropyl)amino)but-2-enamide] | 

Further lines, the compound ahead of its results:

Compound | pIC50 ([2]; Homo sapiens, MIA PaCa-2, 72 h) | pIC50 [3] | pIC50 [2] | binding rate [1]
CO[C@H]1CC[C@H](NC/C=C/C(=O)Nc2c(F)cc(C(=O)c3ccc4c(-c5c(C)cc6c(ncn6C)c5Cl)cccn34)cc2F)CC1 (single isomer, unassigned) [Example 12-1, (E)-N-(4-(8-(4-chloro-1,6-dimethyl-1H-benzo[d]imidazol-5-yl)indolizine-3-carbonyl)-2,6-difluorophenyl)-4-(((1r,4r)-4-methoxycyclohexyl)amino)but-2-enamide] |  | 7.54 | 7.10 | A (A binding rate of 80% or more is rated “A”)
CO[C@H]1CC[C@H](NC/C=C/C(=O)Nc2c(F)cc(C(=O)c3ccc4c(-c5c(C)cc6c(ncn6C)c5Cl)cccn34)cc2F)CC1 (single isomer, unassigned) [Example 12-2, (E)-N-(4-(8-(4-chloro-1,6-dimethyl-1H-benzo[d]imidazol-5-yl)indolizine-3-carbonyl)-2,6-difluorophenyl)-4-(((1r,4r)-4-methoxycyclohexyl)amino)but-2-enamide] |  | 6.80 | 6.57 | B (a binding rate of 60% or more and less than 80% is rated “B”)
Cc1cc2c(ncn2C)c(Cl)c1-c1cccn2c(C(=O)c3cc(F)c(NC(=O)/C=C/CNC(C)(C)C)c(F)c3)ccc12 (single isomer, unassigned) [Example 13-1, (E)-4-(tert-butylamino)-N-(4-(8-(4-chloro-1,6-dimethyl-1H-benzo[d]imidazol-5-yl)indolizine-3-carbonyl)-2,6-difluorophenyl)but-2-enamide] |  | 7.34 | 7.49 | A (A binding rate of 80% or more is rated “A”)
Cc1cc2c(ncn2C)c(Cl)c1-c1cccn2c(C(=O)c3cc(F)c(NC(=O)/C=C/CNC(C)(C)C)c(F)c3)ccc12 (single isomer, unassigned) [Example 13-2, (E)-4-(tert-butylamino)-N-(4-(8-(4-chloro-1,6-dimethyl-1H-benzo[d]imidazol-5-yl)indolizine-3-carbonyl)-2,6-difluorophenyl)but-2-enamide] |  | 6.49 | 6.66 | A (A binding rate of 80% or more is rated “A”)
COc1cc2c(ncn2C)c(Cl)c1-c1cccn2c(C(=O)c3cc(F)c(NC(=O)/C=C/CNC(C)(C)C)c(F)c3)ccc12 (single isomer, unassigned) [Example 14-1, (E)-4-(tert-butylamino)-N-(4-(8-(4-chloro-6-methoxy-1-methyl-1H-benzo[d]imidazol-5-yl)indolizine-3-carbonyl)-2,6-difluorophenyl)but-2-enamide] | 7.55 | 7.24 |  | A (A binding rate of 80% or more is rated “A”)
COc1cc2c(ncn2C)c(Cl)c1-c1cccn2c(C(=O)c3cc(F)c(NC(=O)/C=C/CNC(C)(C)C)c(F)c3)ccc12 (single isomer, unassigned) [Example 14-2, (E)-4-(tert-butylamino)-N-(4-(8-(4-chloro-6-methoxy-1-methyl-1H-benzo[d]imidazol-5-yl)indolizine-3-carbonyl)-2,6-difluorophenyl)but-2-enamide] |  | 7.25 | 7.38 | A (A binding rate of 80% or more is rated “A”)
